Results published in patent US9175003B2, “Substituted azoanthracene derivatives and intermediates for preparation thereof” (TransTech Pharma, LLC, priority 2009, dated 2015).

Molecular target: human GLP-1 receptor (Homo sapiens (Human), UniProt P43220)
Conditions: read-out: Mean EC50; cAMP, HTRF detection, 30 min at 37° C., HEK-293 cells expressing cloned human GLP-1 receptor
Method: Following overnight incubation of cells, media was removed, and compounds (at concentrations ranging from 0.0001 to 100 μM) were added to monolayer cells in Iscove's modified dulbecco's medium (IMDM), 100 μM RO 20-1724 PDE inhibitor, 0.1% BSA, 2% DMSO in a final volume of 100 μL, and incubated for 30 min at 37° C. […] Alternatively, cells were harvested and combined with compounds in suspension using the buffer and protocol described above. cAMP was quantified using a homogenous time-resolved fluorescence detection system (cAMP dynamic, CIS bio International).

Sequence of human GLP-1 receptor (P43220 24-463): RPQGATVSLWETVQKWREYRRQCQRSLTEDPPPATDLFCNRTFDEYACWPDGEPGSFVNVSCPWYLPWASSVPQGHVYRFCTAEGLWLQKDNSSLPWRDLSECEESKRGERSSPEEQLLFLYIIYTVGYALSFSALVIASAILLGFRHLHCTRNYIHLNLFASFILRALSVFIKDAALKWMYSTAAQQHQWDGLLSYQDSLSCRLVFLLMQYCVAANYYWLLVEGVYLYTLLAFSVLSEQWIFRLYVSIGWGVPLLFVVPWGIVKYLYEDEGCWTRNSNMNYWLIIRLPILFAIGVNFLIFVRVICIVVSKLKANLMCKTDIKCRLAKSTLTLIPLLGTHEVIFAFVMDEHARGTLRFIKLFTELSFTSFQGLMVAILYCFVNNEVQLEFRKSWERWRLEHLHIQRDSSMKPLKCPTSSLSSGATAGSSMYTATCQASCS

EC50 [nM] | Compound
34 | Cc1nc(C(=O)N2Cc3cc4c(cc3C[C@H]2C(=O)N[C@@H](Cc2ccc(-c3ccnc(C)c3C)cc2)C(=O)O)OC[C@H](c2ccc(OCCc3ccc(Cl)c(Cl)c3)cc2)O4)c(C)o1 [Example 387, (S)-2-{[(3S,8S)-3-{4-[2-(3,4-Dichloro-phenyl)-ethoxy]-phenyl}-7-(2,5-dimethyl-oxazole-4-carbonyl)-2,3,6,7,8,9-hexahydro-[1,4]dioxino[2,3-g]isoquinoline-8-carbonyl]-amino}-3-[4-(2,3-dimethyl-pyridin-4-yl)-phenyl]-propionic acid]
179 | Cc1nccc(-c2ccc(C[C@H](NC(=O)[C@@H]3Cc4cc5c(cc4CN3C(=O)N[C@H](C)c3ccccc3)O[C@@H](c3ccc(OCCc4ccc(Cl)cc4)cc3)CO5)C(=O)O)cc2)c1C [Example 388, (S)-2-{[(3S,8S)-3-{4-[2-(4-Chloro-phenyl)-ethoxy]-phenyl}-7-((R)-1-phenyl-ethylcarbamoyl)-2,3,6,7,8,9-hexahydro-[1,4]dioxino[2,3-g]isoquinoline-8-carbonyl]-amino}-3-[4-(2,3-dimethyl-pyridin-4-yl)-phenyl]-propionic acid]
191 | Cc1nccc(-c2ccc(C[C@H](NC(=O)[C@@H]3Cc4cc5c(cc4CN3C(=O)N[C@H](C)c3ccccc3)O[C@@H](c3ccc(O[C@H]4CC[C@H](C(C)(C)C)CC4)cc3)CO5)C(=O)O)cc2)c1C [Example 389, (S)-2-{[(3S,8S)-3-[4-(trans-4-tert-Butyl-cyclohexyloxy)-phenyl]-7-((R)-1-phenyl-ethylcarbamoyl)-2,3,6,7,8,9-hexahydro-[1,4]dioxino[2,3-g]isoquinoline-8-carbonyl]-amino}-3-[4-(2,3-dimethyl-pyridin-4-yl)-phenyl]-propionic acid]
74 | Cc1nccc(-c2ccc(C[C@H](NC(=O)[C@@H]3Cc4cc5c(cc4CN3C(=O)N[C@H](C)c3ccccc3)O[C@@H](c3ccc(OCc4cc(Cl)cc(Cl)c4)cc3)CO5)C(=O)O)cc2)c1C [Example 393, (S)-2-{[(3S,8S)-3-[4-(3,5-dichloro-benzyloxy)-phenyl]-7-((R)-1-phenyl-ethylcarbamoyl)-2,3,6,7,8,9-hexahydro-[1,4]dioxino[2,3-g]isoquinoline-8-carbonyl]-amino}-3-[4-(2,3-dimethyl-pyridin-4-yl)-phenyl]-propionic acid]
156 | Cc1nccc(-c2ccc(C[C@H](NC(=O)[C@@H]3Cc4cc5c(cc4CN3C(=O)N[C@H](C)c3ccccc3)O[C@@H](c3ccc(OCCc4ccc(Cl)c(Cl)c4)cc3)CO5)C(=O)O)cc2)c1C [Example 396, (S)-2-{[(3S,8S)-3-{4-[2-(3,4-Dichloro-phenyl)-ethoxy]-phenyl}-7-((R)-1-phenyl-ethylcarbamoyl)-2,3,6,7,8,9-hexahydro-[1,4]dioxino[2,3-g]isoquinoline-8-carbonyl]-amino}-3-[4-(2,3-dimethyl-pyridin-4-yl)-phenyl]-propionic acid]
138 | Cc1nccc(Oc2ccc(C[C@H](NC(=O)[C@@H]3Cc4cc5c(cc4CN3C(=O)OC(C)(C)C)O[C@@H](c3ccc(OCc4ccc(Cl)c(Cl)c4)cc3)CO5)C(=O)O)cc2)c1C [Example 403, (3S,8S)-8-{(S)-1-Carboxy-2-[4-(2,3-dimethyl-pyridin-4-yloxy)-phenyl]-ethylcarbamoyl}-3-[4-(3,4-dichloro-benzyloxy)-phenyl]-2,3,8,9-tetrahydro-6H-[1,4]dioxino[2,3-g]isoquinoline-7-carboxylic acid tert-butyl ester]
213 | Cc1nc(C(=O)N2Cc3cc4c(cc3C[C@H]2C(=O)N[C@@H](Cc2ccc(-c3ccnc(C)c3C)cc2)C(=O)O)OC[C@H](c2ccc(OCC3CCCCC3)cc2)O4)c(C)o1 [Example 405, (S)-2-{[(3S,8S)-3-(4-Cyclohexylmethoxy-phenyl)-7-(2,5-dimethyl-oxazole-4-carbonyl)-2,3,6,7,8,9-hexahydro-[1,4]dioxino[2,3-g]isoquinoline-8-carbonyl]-amino}-3-[4-(2,3-dimethyl-pyridin-4-yl)-phenyl]-propionic acid]
24 | Cc1nccc(-c2ccc(C[C@H](NC(=O)[C@@H]3Cc4cc5c(cc4CN3C(=O)c3cccc(F)c3)O[C@@H](c3ccc(OCc4ccc(Cl)c(Cl)c4)cc3)CO5)C(=O)O)cc2)c1C [Example 409, (S)-2-{[(3S,8S)-3-[4-(3,4-Dichloro-benzyloxy)-phenyl]-7-(3-fluoro-benzoyl)-2,3,6,7,8,9-hexahydro-[1,4]dioxino[2,3-g]isoquinoline-8-carbonyl]-amino}-3-[4-(2,3-dimethyl-pyridin-4-yl)-phenyl]-propionic acid]
9 | Cc1nc(N)sc1S(=O)(=O)N1Cc2cc3c(cc2C[C@H]1C(=O)N[C@@H](Cc1ccc(-c2ccnc(C)c2C)cc1)C(=O)O)OC[C@H](c1ccc(OCc2ccc(Cl)c(Cl)c2)cc1)O3 [Example 411, (S)-2-({(3S,8S)-7-(2-Amino-4-methyl-thiazole-5-sulfonyl)-3-[4-(3,4-dichloro-benzyloxy)-phenyl]-2,3,6,7,8,9-hexahydro-[1,4]dioxino[2,3-g]isoquinoline-8-carbonyl}-amino)-3-[4-(2,3-dimethyl-pyridin-4-yl)-phenyl]-propionic acid]
191 | Cc1nccc(-c2ccc(C[C@H](NC(=O)[C@@H]3Cc4cc5c(cc4CN3C(=O)N[C@H](C)c3ccccc3)O[C@@H](c3cccc(OCc4ccc(Cl)c(Cl)c4)c3)CO5)C(=O)O)cc2)c1C [Example 414, (S)-2-{[(3S,8S)-3-[3-(3,4-Dichloro-benzyloxy)-phenyl]-7-((R)-1-phenylethylcarbamoyl)-2,3,6,7,8,9-hexahydro-[1,4]dioxino[2,3-g]isoquinoline-8-carbonyl]-amino}-3-[4-(2,3-dimethyl-pyridin-4-yl)-phenyl]-propionic acid]
75 | Cc1nc(C(=O)N2Cc3cc4c(cc3C[C@H]2C(=O)N[C@@H](Cc2ccc(-c3ccnc(C)c3C)cc2)C(=O)O)OC[C@H](c2cccc(OCc3ccc(Cl)c(Cl)c3)c2)O4)c(C)o1 [Example 415, (S)-2-{[(3S,8S)-3-[3-(3,4-Dichloro-benzyloxy)-phenyl]-7-(2,5-dimethyl-oxazole-4-carbonyl)-2,3,6,7,8,9-hexahydro-[1,4]dioxino[2,3-g]isoquinoline-8-carbonyl]-amino}-3-[4-(2,3-dimethyl-pyridin-4-yl)-phenyl]-propionic acid]
90 | CC[C@@H](c1ccccc1)N1Cc2cc3c(cc2C[C@H]1C(=O)N[C@@H](Cc1ccc(-c2ccnc(C)c2C)cc1)C(=O)O)OC[C@H](c1cccc(OCc2ccc(Cl)c(Cl)c2)c1)O3 [Example 419, (S)-2-{[(3S,8S)-3-[3-(3,4-Dichloro-benzyloxy)-phenyl]-7-((S)-1-phenyl-propyl)-2,3,6,7,8,9-hexahydro-[1,4]dioxino[2,3-g]isoquinoline-8-carbonyl]-amino}-3-[4-(2,3-dimethyl-pyridin-4-yl)-phenyl]-propionic acid]
8 | CC[C@@H](c1ccccc1)N1Cc2cc3c(cc2C[C@H]1C(=O)N[C@@H](Cc1ccc(Oc2ccnc(C)c2C)cc1)C(=O)O)OC[C@H](c1cccc(OCc2ccc(Cl)c(Cl)c2)c1)O3 [Example 422, (S)-2-{[(3S,8S)-3-[3-(3,4-Dichloro-benzyloxy)-phenyl]-7-((S)-1-phenyl-propyl)-2,3,6,7,8,9-hexahydro-[1,4]dioxino[2,3-g]isoquinoline-8-carbonyl]-amino}-3-[4-(2,3-dimethyl-pyridin-4-yloxy)-phenyl]-propionic acid]
203 | CC[C@@H](c1ccccc1)N1Cc2cc3c(cc2C[C@H]1C(=O)N[C@@H](Cc1ccc(-c2ccnc(C)c2C)cc1)C(=O)O)OC[C@H](c1ccc(Oc2ccccc2)cc1)O3 [Example 424, (S)-3-[4-(2,3-Dimethyl-pyridin-4-yl)-phenyl]-2-{[(3S,8S)-3-(4-phenoxy-phenyl)-7-((S)-1-phenyl-propyl)-2,3,6,7,8,9-hexahydro-[1,4]dioxino[2,3-g]isoquinoline-8-carbonyl]-amino}-propionic acid]
84 | Cc1nccc(-c2ccc(C[C@H](NC(=O)[C@@H]3Cc4cc5c(cc4CN3C(=O)OC(C)(C)C)O[C@H](c3ccc(OCc4ccc(Cl)c(Cl)c4)cc3)CO5)C(=O)O)cc2)c1C [Example 427, (3R,8S)-8-{(S)-1-Carboxy-2-[4-(2,3-dimethyl-pyridin-4-yl)-phenyl]-ethylcarbamoyl}-3-[4-(3,4-dichloro-benzyloxy)-phenyl]-2,3,8,9-tetrahydro-6H-[1,4]dioxino[2,3-g]isoquinoline-7-carboxylic acid tert-butyl ester]
22 | Cc1nc(C(=O)N2Cc3cc4c(cc3C[C@H]2C(=O)N[C@@H](Cc2ccc(-c3ccnc(C)c3C)cc2)C(=O)O)OC[C@@H](c2ccc(OCc3ccc(Cl)c(Cl)c3)cc2)O4)c(C)o1 [Example 428, (S)-2-{[(3R,8S)-3-[4-(3,4-Dichloro-benzyloxy)-phenyl]-7-(2,5-dimethyl-oxazole-4-carbonyl)-2,3,6,7,8,9-hexahydro-[1,4]dioxino[2,3-g]isoquinoline-8-carbonyl]-amino}-3-[4-(2,3-dimethyl-pyridin-4-yl)-phenyl]-propionic acid]
32 | Cc1nccc(-c2ccc(C[C@H](NC(=O)[C@@H]3Cc4cc5c(cc4CN3C(=O)N[C@H](C)c3ccccc3)O[C@H](c3ccc(OCc4ccc(Cl)c(Cl)c4)cc3)CO5)C(=O)O)cc2)c1C [Example 429, (S)-2-{[(3R,8S)-3-[4-(3,4-Dichloro-benzyloxy)-phenyl]-7-((R)-1-phenyl-ethylcarbamoyl)-2,3,6,7,8,9-hexahydro-[1,4]dioxino[2,3-g]isoquinoline-8-carbonyl]-amino}-3-[4-(2,3-dimethyl-pyridin-4-yl)-phenyl]-propionic acid]

Compound | EC50 [nM]
CC[C@@H](c1ccccc1)N1Cc2cc3c(cc2C[C@H]1C(=O)N[C@@H](Cc1ccc(-c2ccnc(C)c2C)cc1)C(=O)O)OC[C@@H](c1ccc(OCc2ccc(Cl)c(Cl)c2)cc1)O3 [Example 430, (S)-2-{[(3R,8S)-3-[4-(3,4-Dichloro-benzyloxy)-phenyl]-7-((S)-1-phenyl-propyl)-2,3,6,7,8,9-hexahydro-[1,4]dioxino[2,3-g]isoquinoline-8-carbonyl]-amino}-3-[4-(2,3-dimethyl-pyridin-4-yl)-phenyl]-propionic acid] | 12
